In patent publication US7041844B2, “Irreversible non-steroidal antagonist compound and its use in the treatment of prostate cancer” (The University Of Tennessee Research Corporation, priority 1996, dated 2006):

Columns and labels:
[1] = target: T1, rat prostate AR (Rattus norvegicus, UniProt P15207); assay: Saturation binding of 3H-MIB in the AR preparation (Scatchard analysis)
T1 sequence (P15207 1-902): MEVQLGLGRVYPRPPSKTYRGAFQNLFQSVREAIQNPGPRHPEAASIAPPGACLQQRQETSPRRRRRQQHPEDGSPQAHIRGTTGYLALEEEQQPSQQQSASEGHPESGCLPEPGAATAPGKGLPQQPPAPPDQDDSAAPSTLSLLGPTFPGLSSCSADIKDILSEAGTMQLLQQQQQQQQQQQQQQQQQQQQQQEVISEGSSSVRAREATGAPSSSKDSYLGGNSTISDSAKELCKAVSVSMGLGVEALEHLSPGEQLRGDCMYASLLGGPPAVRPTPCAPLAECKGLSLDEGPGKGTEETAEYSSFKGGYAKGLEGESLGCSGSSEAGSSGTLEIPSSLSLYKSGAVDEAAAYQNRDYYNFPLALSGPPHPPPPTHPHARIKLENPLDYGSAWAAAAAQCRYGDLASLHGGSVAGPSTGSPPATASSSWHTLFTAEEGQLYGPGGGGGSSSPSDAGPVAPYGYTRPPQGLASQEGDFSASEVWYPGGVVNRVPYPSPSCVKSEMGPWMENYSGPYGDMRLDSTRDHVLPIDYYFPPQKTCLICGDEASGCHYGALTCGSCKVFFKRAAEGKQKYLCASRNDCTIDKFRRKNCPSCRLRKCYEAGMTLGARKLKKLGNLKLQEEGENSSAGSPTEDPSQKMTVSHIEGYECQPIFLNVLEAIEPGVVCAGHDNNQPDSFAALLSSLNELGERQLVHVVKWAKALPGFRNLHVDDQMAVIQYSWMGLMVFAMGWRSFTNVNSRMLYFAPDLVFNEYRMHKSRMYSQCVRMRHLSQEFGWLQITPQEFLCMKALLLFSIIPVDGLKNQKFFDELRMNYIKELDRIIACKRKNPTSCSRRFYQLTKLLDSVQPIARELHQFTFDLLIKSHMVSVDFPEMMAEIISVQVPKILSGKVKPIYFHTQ

[2] = target: T2, rat ventral prostate AR (Rattus norvegicus, UniProt P15207); assay: Competitive displacement of 3H-MIB from AR binding sites; details: comparison of Ki values
T2 construct: from tissue; host or cells: ventral prostate cytosol of castrated male Sprague-Dawley rats
T2 sequence (P15207 1-902): T1 sequence (P15207 1-902)
Protocol: Receptor binding studies for the compounds shown in Table 3 were conducted as follows.
1. AR were isolated from rat ventral prostate tissue by differential centrifugation.
2. Samples of the following composition listed in Table 4 were incubated at 4° C. for 18 hours:
Percent Specific Binding=(B/B0)×100
Data were computer fitted to the equation: […]
Equilibrium dissociation constant of each isomer (Ki) was determined using the equation.
AR isolation was performed as follows.

| Structure (SMILES) | Kd [1] [nM] | AR binding affinity (result in words) [2] |
| --- | --- | --- |
| C[C@@H]1CC2=CC(=O)CC[C@@H]2[C@H]2CC[C@@]3(C)[C@@H](CC[C@]3(C)O)[C@@H]21 [MIB, Mibolerone] | 0.182 | – |
| O=C(CCl)NS[N+](=O)[O-] [S-NT-CAA, S-nitro-thio chloroacetamide] | – | close to that of S-Casodex |
| O=[N+]([O-])SN=C=S [S-NT-NCS, S-nitro-thio-isothiocyanate] | – | close to that of S-Casodex |
